In this experiment the target is T1, PLK4 (Homo sapiens, UniProt O00444).
T1 construct: expressed in transfected cells; host or cells: HEK293 T cells (ATCC CRL-3216)
T1 sequence (O00444 1-970): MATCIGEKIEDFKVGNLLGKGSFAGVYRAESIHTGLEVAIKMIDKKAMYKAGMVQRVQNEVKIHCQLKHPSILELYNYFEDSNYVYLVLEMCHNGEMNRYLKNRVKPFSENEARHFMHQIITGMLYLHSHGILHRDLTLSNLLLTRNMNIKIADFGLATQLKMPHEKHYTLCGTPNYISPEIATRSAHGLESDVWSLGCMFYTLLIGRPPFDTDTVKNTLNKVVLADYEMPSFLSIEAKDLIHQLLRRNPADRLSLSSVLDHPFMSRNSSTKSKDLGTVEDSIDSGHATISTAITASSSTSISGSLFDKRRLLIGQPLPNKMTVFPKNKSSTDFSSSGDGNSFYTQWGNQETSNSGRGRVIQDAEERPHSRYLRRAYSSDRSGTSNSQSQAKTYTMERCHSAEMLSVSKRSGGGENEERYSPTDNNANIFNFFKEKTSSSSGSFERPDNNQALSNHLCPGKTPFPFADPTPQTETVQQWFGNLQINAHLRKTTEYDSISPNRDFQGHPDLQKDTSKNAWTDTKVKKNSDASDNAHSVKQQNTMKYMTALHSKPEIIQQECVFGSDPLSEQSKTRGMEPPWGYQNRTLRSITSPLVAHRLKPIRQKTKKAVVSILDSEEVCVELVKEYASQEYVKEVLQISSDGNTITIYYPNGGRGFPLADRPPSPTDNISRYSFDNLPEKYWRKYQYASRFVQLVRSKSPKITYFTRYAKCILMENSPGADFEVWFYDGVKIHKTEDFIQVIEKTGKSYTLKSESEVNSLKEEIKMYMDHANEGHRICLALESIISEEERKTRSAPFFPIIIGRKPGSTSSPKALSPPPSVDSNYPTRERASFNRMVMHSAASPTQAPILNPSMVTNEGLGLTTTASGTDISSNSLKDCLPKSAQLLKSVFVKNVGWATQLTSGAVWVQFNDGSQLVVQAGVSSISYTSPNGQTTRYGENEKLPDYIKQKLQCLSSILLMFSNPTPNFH
Description: PLK4 NanoBRET target engagement assay. It is filed as binding. Conditions: HEK293 T cells transfected with PLK4 NanoLuc fusion vector; K-5 tracer; 2 hrs incubation. The method, boiled down:
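HEK293T cells transiently expressing PLK4-NanoLuc, plated at 17000 cells/well with K-5 tracer and compound, incubated 2 h at 37 °C/5% CO2. After substrate/inhibitor mix, 610/450 nm emission ratio ×1000 gave mBRET; IC50 from 4-parameter fit.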
In general terms: Bioluminescence resonance energy transfer reports proximity on the nanometre scale.

In general, pIC50 refers to the IC50 on a negative log10 scale, so that one unit is a factor of ten. Higher therefore signals a low IC50.

Structures are written as SMILES. pIC50: −log10 of the molar value.

Consider `Cc1cc(Nc2nc(N(C)c3c(F)cc(S(C)(=O)=O)cc3F)nc(-c3c(C)ncn3C)c2C2CC2)n[nH]1` [Compound 129], for which the pIC50 was 7.24.

On to `Cc1cc(-c2nc(N(C)c3c(F)cc(S(C)(=O)=O)cc3F)nc(Nc3cc(C)[nH]n3)c2C2CC2)cnn1` [Compound 130], for which the pIC50 is 7.62.

`Cc1cc(Nc2nc(N(C)c3c(F)cc(S(C)(=O)=O)cc3F)nc(-c3cnn(C(F)F)c3)c2C2CC2)n[nH]1` [Compound 131] showed a pIC50 of 8.05.

`Cc1cc(Nc2nc(N(C)c3cc(F)c(S(C)(=O)=O)cc3F)nc(-c3ccn(C)n3)c2C2CC2)n[nH]1` [Compound 133] had a pIC50 of 7.74.

Turning to `Cc1cc(Nc2nc(N(C)c3c(F)cc(S(C)(=O)=O)cc3F)nc(-c3cncn3C)c2C2CC2)n[nH]1` [Compound 134], the pIC50 is 8.15.

In the case of `Cc1cc(Nc2nc(N(C)c3c(F)cc(S(C)(=O)=O)cc3F)nc(-c3ccncn3)c2C2CC2)n[nH]1` [Compound 135], the pIC50 was 7.74.

Molecule `CCn1cnc(-c2nc(N(C)c3c(F)cc(S(C)(=O)=O)cc3F)nc(Nc3cc(C)[nH]n3)c2C2CC2)c1` [Compound 136] had a pIC50 of 8.30.

`Cc1cc(Nc2nc(N(C)c3c(F)cc(S(C)(=O)=O)cc3F)nc(-c3cn(C(C)C)cn3)c2C2CC2)n[nH]1` [Compound 137] had a pIC50 of 8.52.

`Cc1cc(Nc2nc(N(C)c3c(F)cc(S(C)(=O)=O)cc3F)nc(C3CC3)c2C2CC2)n[nH]1` [Compound 138] had a pIC50 of 6.80.

`COCCn1cnc(-c2nc(N(C)c3c(F)cc(S(C)(=O)=O)cc3F)nc(Nc3cc(C)[nH]n3)c2C2CC2)c1` [Compound 139]: the pIC50 is 8.40.

The molecule `Cc1cc(Nc2nc(N(C)c3c(F)cc(S(C)(=O)=O)cc3F)nc(-c3cn4c(n3)CCC4)c2C2CC2)n[nH]1` [Compound 140] had a pIC50 of 8.52.

In turn, `Cc1cc(Nc2nc(N(C)c3c(F)cc(S(C)(=O)=O)cc3F)nc(-c3cnn(CCO)c3)c2C2CC2)n[nH]1` [Compound 141] showed a negative-log IC50 (pIC50) of 8.05.

Take `Cc1cc(Nc2nc(N(C)c3c(F)cc(S(C)(=O)=O)cc3F)nc(-c3nccn3C)c2C2CC2)n[nH]1` [Compound 142]: the negative-log IC50 (pIC50) was 7.89.

As for `Cc1cc(Nc2nc(N(C)c3c(F)cc(S(C)(=O)=O)cc3F)nc(-c3cn(C(F)F)nc3C)c2C2CC2)n[nH]1` [Compound 143], the pIC50 is 7.92. The pIC50 values of the last two molecules are within 0.2 log units of each other.

The molecule `Cc1cc(Nc2nc(N(C)c3c(F)cc(S(C)(=O)=O)cc3F)nc(-c3cc(C#N)n(C)n3)c2C2CC2)n[nH]1` [Compound 145] had a pIC50 of 7.74.

The molecule `Cc1cc(Nc2nc(N(C)c3c(F)cc(S(C)(=O)=O)cc3F)nc(-c3cccnn3)c2C2CC2)n[nH]1` [Compound 146] had a pIC50 of 7.68.

In turn, `COc1nn(C)cc1-c1nc(N(C)c2c(F)cc(S(C)(=O)=O)cc2F)nc(Nc2cc(C)[nH]n2)c1C1CC1` [Compound 147] showed a pIC50 of 8.30. This pIC50 lies 0.62 log units higher than the previous one.

The molecule `Cc1cc(Nc2nc(N(C)c3c(F)cc(S(C)(=O)=O)cc3F)nc(-c3cn(C4CC4)cn3)c2C2CC2)n[nH]1` [Compound 148] showed a pIC50 of 8.40.

In the case of `Cc1cc(Nc2nc(N(C)c3c(F)cc(S(C)(=O)=O)cc3F)nc(-c3cn(C)nc3C(F)F)c2C2CC2)n[nH]1` [Compound 149], the pIC50 was 8.22.

With `COCCn1ccc(-c2nc(N(C)c3c(F)cc(S(C)(=O)=O)cc3F)nc(Nc3cc(C)[nH]n3)c2C2CC2)n1` [Compound 150], the pIC50 is 7.82.

On to `Cc1cc(Nc2nc(N(C)c3c(F)cc(S(C)(=O)=O)cc3F)nc(-c3oc(C)nc3C)c2C2CC2)n[nH]1` [Compound 151], for which the pIC50 is 8.15.

As for `[2H]C([2H])([2H])n1cc(-c2nc(N(C)c3c(F)cc(S(C)(=O)=O)cc3F)nc(Nc3cc(C)[nH]n3)c2C2CC2)c(C)n1` [Compound 152], the negative-log IC50 (pIC50) was 8.30.

For the molecule `[2H]C([2H])([2H])n1ncc(-c2nc(N(C)c3c(F)cc(S(C)(=O)=O)cc3F)nc(Nc3cc(C)[nH]n3)c2C2CC2)c1C` [Compound 153], the pIC50 was 8.10. This pIC50 is 0.20 log units lower than that of the molecule before.

As to `COc1c(-c2nc(N(C)c3c(F)cc(S(C)(=O)=O)cc3F)nc(Nc3cc(C)[nH]n3)c2C2CC2)cnn1C` [Compound 154], the pIC50 was 8.00.

`Cc1cc(Nc2nc(N(C)c3c(F)cc(S(C)(=O)=O)cc3F)nc(-c3ccn(C(F)F)n3)c2C2CC2)n[nH]1` [Compound 155] gave a pIC50 of 8.00.

In turn, `Cc1cc(Nc2nc(N(C)c3c(F)cc(S(C)(=O)=O)cc3F)nc(-c3cnc(C)o3)c2C2CC2)n[nH]1` [Compound 156] had a pIC50 of 7.96.

In the case of `Cc1cc(Nc2nc(N(C)c3cc(F)c(S(C)(=O)=O)cc3F)nc(-c3cn(C)nc3C)c2C2CC2)n[nH]1` [Compound 159], the pIC50 is 8.15.

With `COCCn1cc(-c2nc(N(C)c3c(F)cc(S(C)(=O)=O)cc3F)nc(Nc3cc(C)[nH]n3)c2C2CC2)c(C)n1` [Compound 160], the pIC50 was 8.70.

`COCCn1ncc(-c2nc(N(C)c3c(F)cc(S(C)(=O)=O)cc3F)nc(Nc3cc(C)[nH]n3)c2C2CC2)c1C` [Compound 161] gave a pIC50 of 8.40.

As to `Cc1cc(Nc2nc(N(C)c3c(F)cc(S(C)(=O)=O)cc3F)nc(-c3cc(C(F)F)n(C)n3)c2C2CC2)n[nH]1` [Compound 163], the pIC50 is 7.96.

For the molecule `COCc1nc(-c2nc(N(C)c3c(F)cc(S(C)(=O)=O)cc3F)nc(Nc3cc(C)[nH]n3)c2C2CC2)cn1C` [Compound 164], the negative logarithm of the IC50 (pIC50) was 8.10. This pIC50 and that of the molecule before are within 0.2 log units of each other.

As to `Cc1cc(Nc2nc(N(C)c3c(F)cc(S(C)(=O)=O)cc3F)nc(-c3cn(C)c(C(F)F)n3)c2C2CC2)n[nH]1` [Compound 165], the pIC50 is 8.40.

For the molecule `COCc1cc(-c2nc(N(C)c3c(F)cc(S(C)(=O)=O)cc3F)nc(Nc3cc(C)[nH]n3)c2C2CC2)nn1C` [Compound 166], the pIC50 was 8.40.

The molecule `Cc1cc(Nc2nc(N(C)c3c(F)cc(S(C)(=O)=O)cc3F)nc(-c3cn(C)c(CO)n3)c2C2CC2)n[nH]1` [Compound 167] had a pIC50 of 7.52.

The molecule `Cc1cc(Nc2nc(N(C)c3c(F)cc(S(C)(=O)=O)cc3F)nc(-c3nc(C)[nH]c3C)c2C2CC2)n[nH]1` [Compound 168] had a pIC50 of 7.39.

In turn, `Cc1cc(Nc2nc(N(C)c3c(F)cc(S(C)(=O)=O)cc3F)nc(-c3ccn(CCO)n3)c2C2CC2)n[nH]1` [Compound 169] showed a negative logarithm of the IC50 (pIC50) of 8.40. This pIC50 lies 1.01 log units higher than the previous one.

The molecule `Cc1cc(Nc2nc(N(C)c3c(F)cc(S(C)(=O)=O)cc3F)nc(-c3cnn(CC(=O)N(C)C)c3)c2C2CC2)n[nH]1` [Compound 170] gave a pIC50 of 7.96.

The molecule `CNC(=O)Cn1cc(-c2nc(N(C)c3c(F)cc(S(C)(=O)=O)cc3F)nc(Nc3cc(C)[nH]n3)c2C2CC2)cn1` [Compound 171] had a pIC50 of 7.64.

In turn, `Cc1cc(Nc2nc(N(C)c3c(F)cc(S(C)(=O)=O)cc3F)nc(-c3cnn(CCS(C)(=O)=O)c3)c2C2CC2)n[nH]1` [Compound 172] showed a pIC50 of 8.22.

Molecule `Cc1cc(Nc2nc(N(C)c3c(F)cc(S(C)(=O)=O)cc3F)nc(-c3ncn(C)c3C#N)c2C2CC2)n[nH]1` [Compound 173] had a pIC50 of 6.44. Compared with the last molecule, the pIC50 is 1.78 log units lower.

As for `Cc1cc(Nc2nc(N(C)c3c(F)cc(S(C)(=O)=O)cc3F)nc(-c3cnn4c3CCC4)c2C2CC2)n[nH]1` [Compound 175], the pIC50 was 8.40.

In the case of `Cc1cc(Nc2nc(N(C)c3c(F)cc(S(C)(=O)=O)cc3F)nc(-c3cnn4c3CC(C)(C)C4)c2C2CC2)n[nH]1` [Compound 176], the pIC50 was 7.89.

Consider `Cc1cc(Nc2nc(N(C)c3c(F)cc(S(C)(=O)=O)cc3F)nc(-c3cn(C(CO)CO)nc3C)c2C2CC2)n[nH]1` [Compound 177], for which the pIC50 was 7.42.

(Values after patent US20250177396A1, “POLO-LIKE KINASE 4 (PLK4) INHIBITORS, PHARMACEUTICAL COMPOSITIONS, METHODS OF PREPARATION AND USES THEREOF” (Repare Therapeutics Inc., priority 2022, published 2025).)
